The values below come from US20250281424A1 (New York Blood Center, Inc, priority 2020, published 2025).

pIC50: −log10 of the molar value. Where only a bound is given, the exact number is not on record here.

The target in one series is T1, human PF4 (Homo sapiens, UniProt P02776).
T1 construct: PF4 is a 70 amino acid, lysine-rich 7.8 kDa platelet-specific protein; made in house; host or cells: Escherichia coli BL21DE3 pLysS (pT7-7) and/or Drosophila S2 cells
T1 sequence (P02776 32-101): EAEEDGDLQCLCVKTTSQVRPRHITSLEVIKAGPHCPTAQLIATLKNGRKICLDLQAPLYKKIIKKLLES
Briefly: Inhibition of PF4 tetramer formation (BS3 cross-linking, SDS-PAGE). It is filed as biochemical. Particulars: for pIC50: read-out: IC50 of PF4 tetramer formation inhibition. In short, it runs like this: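 Recombinant human wild-type PF4 (E. coli-expressed, heparin-purified), 10 μg/ml in PBS, incubated with compound 15 min at 37° C or 60 min at room temperature, then cross-linked with 0.2 mM BS3 for 30 min at room temperature. Reducing 12% SDS-PAGE; bands quantified as % tetramer, trimer, dimer, monomer versus compound-free control.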

Series [1] deals with T2, ultra large complexes (ULC) between PF4 tetramers and heparin (Homo sapiens, UniProt P02776).
T2 construct: platelet factor 4 which is a 70 amino acid, lysine-rich, 7.8 kDa platelet-specific protein
T2 sequence (P02776 32-101): T1 sequence (P02776 32-101)
Briefly: Inhibition of formation of ultra large complexes (ULC) of PF4 tetramers and heparin. To be noted: IC50 values are +/−20%. In kind it is biochemical. As to the method:
Since ULCs are formed as part of a dynamic equilibrium between heparin and PF4, dynamic light scattering (DLS) was performed to measure the ability of the exemplified compounds to disrupt preformed ULCs. Samples were analyzed and included PF4 incubated in the absence or presence of unfractionated heparin (UFH) for 20 min at room temperature at PF4 to heparin ratios (PHR) of 1:0 (no heparin), 2:1, and 0.64:1. The samples were then analyzed using photon correlation spectroscopy on a DynaPro® DLS instrument and Dynamics® software (V6.7.6; […]) to obtain correlation function. The results of the DLS analysis indicate the percentage of ULCs and small PF4 particles. Data for the small particles (a population of particles with a mean hydrodynamic diameter of about 1 nm) and data for the large particles (a population of particles with a mean hydrodynamic diameter of about 300 nm) is assessed. Data are expressed as the percent of total intensity from each measurement, the mean of 10 measurements, and representative of two such experiments.
ELISA measurement and gel filtration measurement of ULC inhibition were performed as described in International Patent Publication No. WO2013/142328, which is incorporated herein by reference. Similarly, assays in which heparin concentrations are varied to determine the effect on ULC inhibition were performed as described in that publication.
Certain compounds were evaluated for their ability to inhibit formation of ultra large complexes (ULC) between PF4 tetramers and heparin.

A short description of series [2]: Cytotoxicity HepG2 (MTS reduction). In kind it is cell-based. Particulars: human, HepG2 cells; read-out: Cytotox HepG2 EC50. Background: Formazan colour is commonly taken as a measure of viable cells.
A short description of series [3]: Cytotoxicity NIH3T3 (MTS reduction). In kind it is cell-based. To be noted: mouse, NIH3T3 cells, 1 hour exposure in the absence of serum, N = 3, read-out: Cytotox NIH3T3 EC50.
The nature of series [4]: Human microsome stability. In kind it is in vitro ADME. Particulars: Human microsomes, compound conc = 0.5 μM, n = 1; read-out: Human microsome stability Half life t1/2. An excerpt: (§1) Certain exemplified compounds were examined for ADMET (absorption, distribution, metabolism, excretion and toxicity) profiling using conventional assays with the results shown in the Tables 3A-3C below.

Series [5] in a line: Mouse microsome stability. In kind it is in vitro ADME. Particulars: Mouse microsomes, compound conc = 0.5 μM, n = 1; read-out: Mouse microsome stability Half life t1/2.
From the text: as §1

For a further series, the system named is human platelets. Briefly: PF4-KKO induced platelet activation, P-selectin, human platelets. It is filed as cell-based.

As a reminder, the pIC50 is the negative decadic logarithm of the IC50, by convention in mol/L. In general, EC50 refers to the concentration at which the effect is half-maximal. With `O=C(c1ccc2c(c1)C(=O)CC2=O)c1ccc2c(c1)C(=O)CC2=O` [Example 4, 5,5′-carbonylbis(1h-indene-1,3(2h)-dione)], at human PF4 (100 μM inhibitor, read-out: % inhibition of PF4 tetramer formation at single concentration of inhibitor), the inhibition at 100 µM was 96%. The negative-log IC50 (pIC50) at human PF4 was 5.40; in series [1], 5.52. The EC50 in series [2] is over 250 µg/mL. Further, in series [3], the EC50 at 1 h is over 250 µg/mL. The half-life at 0.5 μM in series [4] stood at 4.7 min; in series [5] it was 1.7 min.

Consider `CCCNC(=O)C1C(=O)c2ccc(C(=O)c3ccc4c(c3)C(=O)C(C(=O)NCCC)C4=O)cc2C1=O` (centres unmarked) [Example 15, 5,5′-carbonylbis(1,3-dioxo-indan-2-carboxylic acid propylamide)], for which, at human PF4 (30 μM inhibitor, read-out: % inhibition of PF4 tetramer formation at single concentration of inhibitor), the inhibition at 30 µM is 93%. Besides, the values for the pIC50 (at human PF4; in series [1]) were 5.52 and 4.96, respectively. Besides, the EC50 in series [2] is over 1000 µg/mL. In addition, the EC50 at 1 h in series [3] is over 1000 µg/mL. In addition, the half-life at 0.5 μM in series [4] is 116 min; in series [5], 93.8 min. The “PF4-KKO induced platelet activation using P-selectin as a marker” value in the series on human platelets (human platelet activation assays, 20 μM and 40 μM (FIGS. 8 and 9)) is recorded as “inhibitory”. The “preventing PF4-KKO induced platelet activation using P-selectin as a marker” value in the series on human platelets (human platelets (FIG. 12)) is “efficacy”.

Regarding `CC(=O)C1(C(=O)OC(C)(C)C)C(=O)c2ccc(Oc3ccc4c(c3)C(=O)C(C(C)=O)(C(=O)OC(C)(C)C)C4=O)cc2C1=O` (centres unmarked) [Example 5, 5-(2-acetyl-2-carbo-t-butoxy-2,3-dihydro-1,3dioxo-1h-inden-6-yloxy)-2-acetyl-2-carbo-t-butoxy-2,3-dihydro-1,3-dioxo-1h-indene], the pIC50 was 4.98 at human PF4 and 5.00 in series [1]. The EC50 in series [2] was over 3350 µg/mL. In series [3], the EC50 at 1 h is over 3350 µg/mL.
